# Assays:
# [1] = target: T1, rat mGlu2 receptor (Rattus norvegicus, UniProt P31421); experiment: [3H]-LY354740 binding on mGlu2 transfected CHO cell membranes; conditions: 10 nM [3H]-LY354740, membranes of CHO cells transfected with rat mGlu2, room temperature, 1 hour
# T1 construct: expressed in transfected cells; membranes prepared
# Text: [^3H]-LY354740 Binding on mGlu2 Transfected CHO Cell Membranes. Transfection and Cell Culture
# cDNA encoding the rat mGlu2 receptor protein in pBluescript II was subcloned into the eukaryotic expression vector pcDNA I-amp from Invitrogen Ltd (Paisley, UK). This vector construct (pcD1mGR2) was co-transfected with a psvNeo plasmid encoding the gene for neomycin resistance, into CHO cells by a modified calcium phosphate method described by Chen & Okayama (1988). The cells were maintained in Dulbecco's Modified Eagle medium with reduced L-glutamine (2 mM final concentration) and 10% dialysed foetal calf serum from Gibco-Invitrogen (Carlsbad, Calif., USA). Selection was made in the presence of G-418 (1000 ug/ml final) and […]. Clones were identified by reverse transcription of 5 μg total RNA, followed by PCR mGlu2 receptor specific primers 5′-[…]-3′ and 5′-[…]-3′in 60 mM Tris HCl (pH 10), 15 mM (NH4)2SO4, 2 mM MgCl2, 25 units/ml Taq Polymerase with 30 cycles annealing at 60° C. for 1 min., extention at 72° C. for 30 s, and 1 min. 95° C. denaturation.
# Cells, cultured as above, were harvested and washed three times with cold PBS and frozen at −80° C. The pellet was resuspended in cold 20 mM HEPES-NaOH buffer containing 10 mM EDTA (pH 7.4), and homogenised with a polytron (Kinematica, AG, Littau, Switzerland) for 10 s at 10 000 rpm. After centrifugation for 30 min. at 4° C., the pellet was washed once with the same buffer, and once with cold 20 mM HEPES-NaOH buffer containing 0.1 mM EDTA, (pH 7.4). Protein content was measured using the micro BCA method from Pierce-Perbio (Rockford, Ill., USA) using bovine serum albumin as standard.
# After thawing, the membranes were resuspended in cold 50 mM Tris-HCl buffer containing 2 mM MgCl2 (pH 7) (binding buffer). The final concentration of the membranes in the assays was 25 μg protein/ml. Inhibition experiments were performed with membranes incubated with 10 nM [^3H]-LY354740 at room temperature, for 1 hour, in presence of various concentrations of the compound to be tested. Following the incubations, membranes were filtered onto Whatmann GF/B glass fiber filters and washed 5 times with cold binding buffer. Non specific binding was measured in the presence of 10 μM DCG IV. After transfer of the filters into plastic vials containing 10 ml of Ultima-gold scintillation fluid from Perkin-Elmer(Boston, Mass., USA), the radioactivity was measured by liquid scintillation in a Tri-Carb 2500 TR counter (Packard, Zürich, Switzerland).
# The inhibition curves were fitted with a four parameter logistic equation giving IC50 values, and Hill coefficients.
# T1 sequence (P31421 19-872): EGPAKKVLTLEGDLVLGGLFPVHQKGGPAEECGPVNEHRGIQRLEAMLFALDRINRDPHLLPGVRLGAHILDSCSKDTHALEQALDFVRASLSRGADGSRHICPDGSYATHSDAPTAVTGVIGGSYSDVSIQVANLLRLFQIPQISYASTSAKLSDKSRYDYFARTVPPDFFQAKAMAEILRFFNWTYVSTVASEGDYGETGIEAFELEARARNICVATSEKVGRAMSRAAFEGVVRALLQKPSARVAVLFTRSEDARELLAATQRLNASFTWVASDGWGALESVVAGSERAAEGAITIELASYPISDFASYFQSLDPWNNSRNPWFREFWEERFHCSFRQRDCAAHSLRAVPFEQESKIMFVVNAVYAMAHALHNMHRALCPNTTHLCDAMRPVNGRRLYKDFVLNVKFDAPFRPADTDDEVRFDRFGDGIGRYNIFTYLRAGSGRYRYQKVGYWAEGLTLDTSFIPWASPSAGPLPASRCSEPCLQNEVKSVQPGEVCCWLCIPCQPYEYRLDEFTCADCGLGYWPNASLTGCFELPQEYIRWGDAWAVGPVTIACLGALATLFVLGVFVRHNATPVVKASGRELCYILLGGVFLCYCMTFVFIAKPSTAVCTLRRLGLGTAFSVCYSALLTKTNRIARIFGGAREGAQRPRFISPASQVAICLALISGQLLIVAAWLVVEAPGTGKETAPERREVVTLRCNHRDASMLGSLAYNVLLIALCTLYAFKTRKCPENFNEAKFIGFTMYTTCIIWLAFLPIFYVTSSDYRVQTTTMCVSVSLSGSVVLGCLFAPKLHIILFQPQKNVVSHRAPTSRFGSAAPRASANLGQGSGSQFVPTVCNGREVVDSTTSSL
Compound,melting point,Ki [1]
"O=C(Nc1cc(S(=O)(=O)N(CCO)CCO)sc1Cl)c1cnn2c(C(F)(F)F)cc(-c3ccc(C(F)(F)F)cc3)nc12 [Example 35, 7-Trifluoromethyl-5-(4-trifluoromethyl-phenyl)-pyrazolo[1,5-a]pyrimidine-3-carboxylic acid {5-[bis-(2-hydroxy-ethyl)-sulfamoyl]-2-chloro-thiophen-3-yl}-amide]",217 °C,27 nM
"NS(=O)(=O)c1nnc(NC(=O)c2cnn3c(C(F)F)cc(-c4ccc(C(F)(F)F)cc4)nc23)s1 [Example 3, 7-Difluoromethyl-5-(4-trifluoromethyl-phenyl)-pyrazolo[1,5-a]pyrimidine-3-carboxylic acid (5-sulfamoyl-[1,3,4]thiadiazol-2-yl)-amide]",284 °C,142 nM
"NS(=O)(=O)c1cc(NC(=O)c2cnn3c(C(F)(F)F)cc(-c4ccc(C(F)(F)F)cc4)nc23)c(Cl)s1 [Example 2, 7-Trifluoromethyl-5-(4-trifluoromethyl-phenyl)-pyrazolo[1,5-a]pyrimidine-3-carboxylic acid (2-chloro-5-sulfamoyl-thiophen-3-yl)-amide]",275 °C,6.9 nM
"Cc1nc(NC(=O)c2cnn3c(C(F)(F)F)cc(-c4ccc(C(F)(F)F)cc4)nc23)sc1S(N)(=O)=O [Example 8, 7-Trifluoromethyl-5-(4-trifluoromethyl-phenyl)-pyrazolo[1,5-a]pyrimidine-3-carboxylic acid (4-methyl-5-sulfamoyl-thiazol-2-yl)-amide]",303 °C,2.5 nM
"NCCNS(=O)(=O)c1cc(NC(=O)c2cnn3c(C(F)(F)F)cc(-c4ccc(C(F)(F)F)cc4)nc23)c(Cl)s1 [Example 78, 7-Trifluoromethyl-5-(4-trifluoromethyl-phenyl)-pyrazolo[1,5-a]pyrimidine-3-carboxylic acid [5-(2-amino-ethylsulfamoyl)-2-chloro-thiophen-3-yl]-amide]",195 °C,–

# Reference: patent US7361659B2, “Pyrrazolo-pyrimidine derivatives” (Hoffmann-La Roche Inc., priority 2005, dated 2008)
